Data on 27 compounds can be found in PubChem BioAssay (NCI).

Where “and” joins values, the source holds several entries; their conditions need not be identical. Identical values can stand only once.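 Protocol summary: plate cells (96-well), add compound at 5 concentrations, incubate 48 h, interpolate endpoints linearly. GI50 is the concentration that inhibits growth by half. At the TGI there is no net growth.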

Holding throughout (assay): NCI tumour cell line growth inhibition, 48 h
Assay [1] relates to HOP-92 NSCLC.
For assay [2], the system named is CCRF-CEM leukemia.
In assay [3] the test system is SK-OV-3 ovarian.
The subject of assay [4] is UO-31 renal.
Assay [5] has as its system HL-60(TB) leukemia.
Assay [6] relates to MOLT-4 leukemia.
Assay [7] relates to COLO 205 colon.
The test system of assay [8] is MALME-3M melanoma.
Assay [9] has as its system A549 NSCLC.
Assay [10] deals with PC-3 prostate.

Take `COc1cc(CC(=O)O)c([N+](=O)[O-])cc1OC`: the TGI in assay [1], in [2], in assay [3], in [4], in [5] and in [6] was over 100 µM in each case. Moreover, the TGI in assay [7], in assay [8] and in assay [9] was over 100 µM in each case.

Take `O=C1OCC2=C1C(c1cccc(Cl)c1)c1cc3c(cc1N2CCO)CCC3` (stereo unspecified): the GI50 is 0.0416 µM in [2]; 0.0414 µM in assay [3]; 0.0515 µM in [4]; 0.0318 µM in assay [5]; 0.0398 µM in [10]; 0.192 µM in [6]. Moreover, the GI50 is 0.0401 µM in [7], 0.0494 µM in assay [8] and 0.0477 µM in [9]. Also, the TGI in assay [2] amounted to 14.1 µM; in assay [3], 7.8 µM; in assay [4], 14.2 µM; in assay [5] it was 0.353 µM; in assay [10], 11.8 µM; in assay [6], 20.3 µM. The TGI amounted to 0.309 µM in assay [7], 22.7 µM in assay [8] and 6.45 µM in assay [9].

Regarding `Cc1cc(C)c(/C=N/NS(=O)(=O)c2ccccc2)c(C)c1`, the TGI in assay [1] was 95.9 µM; in assay [2] it was over 100 µM; in assay [3] it was over 100 µM; in assay [4] it was over 100 µM; in assay [5], over 100 µM; in assay [6], over 100 µM. The TGI in assay [7], in assay [8] and in assay [9] was over 100 µM throughout.

Consider `N#Cc1cccc(C2C(=O)c3ccc(C(=O)c4ccc5c(c4)C(=O)N(c4ccc(Oc6ccc(N7C(=O)c8ccc(C(=O)c9ccc%10c(c9)C(=O)N(c9cccc(C#N)c9)C%10=O)cc8C7=O)cc6)cc4)C5=O)cc3C2=O)c1` (stereo unspecified), for which the TGI in [1], in assay [2], in [4], in assay [5], in [6] and in assay [7] was over 100 µM throughout. The TGI in assay [8] and in assay [9] was over 100 µM in each case.

Take `Cc1ccc(NC(=O)CC2SC(=Nc3ccc(Cl)cc3)NC2=O)cc1C` (stereo unspecified): the TGI in assay [1] was 27.5 µM; in [2], 11 µM; in assay [3], over 66.1 µM; in assay [4], 32.6 µM; in [5], 9.12 µM; in [6], 5.28 µM. Further, the TGI came to 32.4 µM in [7], 33.2 µM in assay [8] and 34.3 µM in [9].

As to `Fc1ccc(N=C2C=CC(=Nc3ccc(F)cc3)c3ccccc32)cc1`, the TGI in assay [1], in assay [2], in assay [3], in assay [4], in [5] and in [6] was over 100 µM in each case. Besides, the TGI in assay [7], in [8] and in assay [9] was over 100 µM in each case.

Regarding `CC1=CC[C@@H](C(C)(C)O)C[C@@H]1O`, the TGI in assay [1], in [2], in assay [3], in [4], in assay [5] and in assay [6] was over 5000 µM in each case. The TGI in assay [7], in assay [8] and in [9] was over 5000 µM throughout.

For the compound `CC1C(O)=C(O)c2ccccc2N1O` (stereo unspecified), the TGI in assay [1], in assay [2], in assay [3], in assay [4], in assay [5] and in assay [6] was over 100 µM throughout. Further, the TGI in [7], in assay [8] and in assay [9] was over 100 µM each time.

Take `Clc1ccccc1C1SCc2nc3ccccc3n21` (stereo unspecified): the TGI in assay [1] was 31.3 µM; in [2], over 100 µM; in assay [3], 82.7 µM; in assay [5] it was 42.3 µM; in assay [6], over 100 µM; in assay [7] it was over 100 µM. The TGI in assay [8] was 53.4 µM; in assay [9], over 100 µM.

As for `O=C1c2ccc3c4c(ccc(c24)C(=O)N1CCNCc1ccccc1)C(=O)N(CCNCc1ccccc1)C3=O`, the GI50 in assay [1] is 7.66 µM; in assay [2], 2.51 µM; in assay [3], 20.9 µM; in assay [5], 2.09 µM; in assay [6], 3.96 µM; in assay [7], 1.65 µM. Besides, the GI50 in assay [9] is 1.87 µM. The TGI in assay [1] is 33.2 µM; in [2] it was over 100 µM; in [3], 45.4 µM; in [5], 4.91 µM; in [6] it was over 100 µM; in [7], 3.01 µM. In assay [9], this compound came in with a TGI of 8.77 µM.

In the case of `CCn1ncc(N=O)c1N`, the TGI in assay [2], in [4], in [10], in assay [6], in assay [7] and in [9] was over 100 µM in each case.

Turning to `Cc1ccccc1-n1c(CCl)nc2ccc(Br)cc2c1=O`, the TGI in assay [1] is 36 µM; in [2], 4.78 µM; in assay [3] it was over 100 µM; in assay [4], 28.2 µM; in [5] it was 17 µM; in assay [6] it was 73.5 µM. Moreover, the TGI in [7] came out at 26.4 µM; in assay [8], 32.9 µM; in [9], 44.9 µM.

As for `CC1(C)C(CC(=O)O)CCCC1CC(=O)O` (stereo unspecified), the TGI in assay [2], in [3], in assay [4], in assay [10], in assay [6] and in [7] was over 100 µM throughout. Besides, the TGI in assay [9] is over 100 µM.

In the case of `CC(=O)O[C@@H]1CC[C@@]2(C)C(=O)C34C[C@@]5(C)C([C@@H](C)CCCC(C)C)CCC5(C)[C@](O)(O3)C(=O)[C@H]4C2C1(C)C` (stereo partly specified), the TGI is 34.5 µM in [1]; 19.8 µM in [2]; 32.4 µM in assay [3]; 26 µM in assay [4]; 25.3 µM in [5]; 28.8 µM in [6]. Also, the TGI came to 27.8 µM in assay [7], 33.2 µM in assay [8] and 29.1 µM in assay [9].

Take `[CH3][Hg]/[N]=C(/N)NC#N`: the GI50 was 1.78 µM in [1]; 3.65 µM in assay [2]; 16.9 µM in [3]; 14.7 µM in [4]; 2.76 µM in assay [5]; 3.73 µM in assay [6]. Further, the GI50 is 1.71 µM in [7], 2.34 µM in [8] and 17.3 µM in assay [9]. The TGI in assay [1] is 3.84 µM; in [2] it was over 100 µM; in assay [3], 30.8 µM; in [4], 28 µM; in assay [5], over 100 µM; in assay [6] it was over 100 µM. Moreover, the TGI in assay [7] worked out at 3.09 µM; in assay [8], 4.94 µM; in assay [9], 38.4 µM.

`O=C(Cc1nc2ccccc2o1)C(=O)Nc1ccc(Cl)cc1Cl`: the TGI in assay [1], in assay [3], in assay [4], in [7], in assay [8] and in [9] was over 100 µM throughout.

On to `CCN(CC)CC(O)c1cc(-c2ccc(Cl)cc2)nc2c(C)c(Cl)ccc12` (stereo unspecified), for which the GI50 in [2] is 2.21 µM; in assay [3] it was 1.71 µM; in assay [4], 0.549 µM; in assay [5], 2.1 µM; in [10], 1.6 µM; in assay [7], 1.77 µM. Moreover, the GI50 in assay [8] is 1.93 µM. The TGI in assay [2] was determined as 5.03 µM; in [3], 3.28 µM; in [4], 2.16 µM; in assay [5], 4.57 µM; in assay [10], 2.97 µM; in assay [7] it was 3.35 µM. The compound also returned a TGI in assay [8] of 3.98 µM.

In the case of `CC1=C(C(=O)Nc2ccc(C)cc2)C(c2cccc([N+](=O)[O-])c2)C(C(=O)Nc2ccc(C)cc2)=C(C)N1`, the TGI in assay [2] is 50.7 µM; in assay [3], over 100 µM; in [4] it was over 100 µM; in assay [5], 39.4 µM; in assay [6], 38.5 µM; in assay [7], 28.1 µM. Also, the TGI is 77.2 µM in assay [8] and over 100 µM in [9].

Consider `COc1ccc2nc3ccccc3c(NCCN(CCCl)CCCl)c2c1`, for which the TGI in assay [1] worked out at 2.43 µM; in [2] it was 2.39 µM; in assay [3], 5.05 µM; in assay [4] it was 4.39 µM; in assay [5], 1.1 µM; in assay [6], 0.758 µM. Moreover, the TGI turned out to be 3.01 µM in assay [8] and 10.7 µM in assay [9].

As for `N#CCCN(c1ccc(C=O)cc1)S(=O)(=O)c1ccccc1`, the TGI in [3], in assay [4], in assay [5], in assay [6], in assay [8] and in assay [9] was over 100 µM throughout.

Regarding `CC(=O)Nc1ccc(C2=N/C(=C\c3ccc(Cl)cc3)C(=O)O2)cc1`, the TGI in [1] is over 100 µM; in assay [2], 71.7 µM; in assay [3] it was over 100 µM; in [4] it was 73.9 µM; in assay [5] it was 85.8 µM; in assay [6] it was 64.1 µM. The TGI in assay [7], in assay [8] and in [9] was over 100 µM throughout.

Regarding `O=C(CC1(O)C(=O)Nc2ccccc21)c1ccccc1O` (stereo unspecified), the TGI in assay [1], in assay [3], in assay [4], in [5], in [6] and in assay [7] was over 100 µM in each case. Also, the TGI in assay [8] and in assay [9] was over 100 µM in each case.

`Cc1cc(C)nc(NS(=O)(=O)c2ccc(NC(=O)COC(=O)c3cccc4c(=O)c5ccccc5[nH]c34)cc2)n1`: the TGI in assay [1] was 60.3 µM; in assay [2], 87.7 µM; in assay [3], over 100 µM; in assay [4], over 100 µM; in [5], 63.9 µM; in assay [6], 84.8 µM. In addition, the TGI in [7] is over 100 µM; in [8] it was 73 µM; in [9] it was over 100 µM.

With `COc1ccc([C@@H]2OC(=O)C3C2C(=O)O[C@H]3c2ccc(OC)cc2)cc1` (stereo partly specified), the TGI in assay [2], in [3], in assay [4], in [5], in assay [6] and in assay [7] was over 100 µM throughout. In assay [9], this compound gave a TGI of over 100 µM.

As to `COC(=O)C(C(=O)C(=O)Nc1ccccc1C)c1nc2ccc([N+](=O)[O-])cc2[nH]c1=O` (stereo unspecified), the TGI in assay [2], in [3], in [4], in [5], in assay [6] and in [7] was over 100 µM each time. For the same compound, the TGI in assay [8] and in [9] was over 100 µM throughout.

In the case of `Cc1cc(Cl)cc2c1NC(=O)C2(O)C(C(=O)c1ccccc1)c1ccccc1` (stereo unspecified), the GI50 in assay [1] is 17.2 µM and 43.3 µM; in assay [4], 67.6 µM and 27.3 µM; in [7] it was > 100 µM and 15.2 µM; in assay [8] it was 91.5 µM and 22.7 µM; in [9], 97.1 µM and 22.6 µM. In addition, the TGI was 78.7 µM and > 100 µM in assay [1]; 81.5 µM in assay [2]; over 100 µM in assay [3]; > 100 µM and 48.4 µM in assay [4]; 52.1 µM in assay [5]; 70.9 µM in assay [6]. The TGI in [7] was > 100 µM and 30 µM; in assay [8], > 100 µM and 49.2 µM; in assay [9] it was > 100 µM and 51.5 µM.

Regarding `CCOC(=O)C(=O)C(C#N)c1ccc(Cl)cc1` (stereo unspecified), the TGI in assay [1], in assay [3], in assay [4], in [5], in [6] and in assay [7] was over 100 µM throughout. Besides, the TGI in assay [8] and in assay [9] was over 100 µM each time.
